Test results taken from article PMC11593225, “Polyphenolic Compounds Activate SERCA1a and Attenuate Methylglyoxal- and Palmitate-Induced Impairment in Pancreatic INS-1E Beta Cells” (Cells, 2024).
Entries after “also recorded” stand apart in the source; their conditions may differ. Read-outs that look alike come from different tables or passages of the source. Each block holds one compound with its values, some of them ahead of it.

How the values were obtained:
SERCA1a = target: T1, SERCA1a (Oryctolagus cuniculus, UniProt P04191); assay: SERCA1a ATPase activity, NADH-coupled enzyme assay in sarcoplasmic reticulum vesicles; format: biochemical, rabbit; conditions: for Effect on SERCA1a activity in the presence of MGX: 3 mM MGX; for PAL SERCA1a Activity: in the presence of PAL; for IC50: read-out: IC50, reduction in SERCA1a activity; for Effect on SERCA1a activity in the presence of PAL: 0.65 mM PAL; for Effect on SERCA1a activity: 2 min; for Concentration from which the SERCA1a activating effect starts: concentration-dependent activation;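 as to all read-outs here: rabbit fast-twitch skeletal muscle SR vesicles with Ca2+ ionophore A23187, ATP hydrolysis rate followed as NADH absorbance loss at 340 nm, 37 °C, started by 10 µM CaCl2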
T1 construct: Sarcoplasmic reticulum (SR) vesicles were isolated from the fast-twitch skeletal muscle; from tissue; host or cells: rabbit fast-twitch skeletal muscle, sarcoplasmic reticulum vesicles
T1 sequence (P04191 1-994 isoform P04191-2): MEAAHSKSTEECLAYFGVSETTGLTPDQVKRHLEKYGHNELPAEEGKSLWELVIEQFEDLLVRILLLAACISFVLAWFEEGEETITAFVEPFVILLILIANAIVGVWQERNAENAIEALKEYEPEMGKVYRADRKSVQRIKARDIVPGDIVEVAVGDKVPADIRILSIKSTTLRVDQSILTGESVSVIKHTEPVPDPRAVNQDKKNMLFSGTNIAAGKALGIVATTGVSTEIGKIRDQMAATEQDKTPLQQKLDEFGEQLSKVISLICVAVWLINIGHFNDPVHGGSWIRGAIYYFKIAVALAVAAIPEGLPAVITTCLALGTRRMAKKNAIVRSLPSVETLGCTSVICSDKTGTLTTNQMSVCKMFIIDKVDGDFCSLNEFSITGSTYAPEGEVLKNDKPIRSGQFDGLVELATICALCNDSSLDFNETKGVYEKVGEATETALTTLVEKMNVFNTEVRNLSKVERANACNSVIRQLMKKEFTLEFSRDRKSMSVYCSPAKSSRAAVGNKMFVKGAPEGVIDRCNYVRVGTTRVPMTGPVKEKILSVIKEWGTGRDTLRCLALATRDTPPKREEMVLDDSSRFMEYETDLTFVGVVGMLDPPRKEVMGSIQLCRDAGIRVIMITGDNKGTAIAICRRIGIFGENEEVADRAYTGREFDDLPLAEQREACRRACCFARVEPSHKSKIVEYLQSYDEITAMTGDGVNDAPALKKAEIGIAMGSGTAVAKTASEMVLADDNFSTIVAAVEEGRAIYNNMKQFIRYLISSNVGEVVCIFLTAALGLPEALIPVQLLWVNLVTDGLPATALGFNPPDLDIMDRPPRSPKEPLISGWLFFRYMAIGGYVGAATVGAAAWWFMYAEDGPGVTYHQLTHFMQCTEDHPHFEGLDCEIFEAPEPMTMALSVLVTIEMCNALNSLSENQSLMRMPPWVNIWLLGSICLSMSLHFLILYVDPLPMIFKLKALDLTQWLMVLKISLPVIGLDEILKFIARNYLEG

INS-1E beta cells [1] = assay: MTT viability assay in INS-1E beta cells; format: cell-based; conditions: for PAL INS-1E Viability: in the presence of PAL; for Effect on INS-1E viability in the presence of MGX: 2.5 mM MGX; for Concentrations protecting against MGX-induced beta cell viability decrease: MGX 2.5 mM; for IC50: MTT, read-out: IC50, INS-1E cell viability
Protocol: The INS-1E insulinoma pancreatic beta cell line (kindly provided by Prof. Claes Wollheim, University of Geneva) was cultured in RPMI 1640 (11 mM glucose, Sigma, St. Louis, MO, USA). The RPMI 1640 was supplemented with 100 U/mL penicillin, 100 μg/mL streptomycin, 2 mM L-glutamine, 1 mM Na pyruvate, 55 μM 2-mercaptoethanol, 10 mM HEPES, 1% nonessential amino acids, and 10% fetal bovine serum (pH 7.0–7.4). Cells were cultivated in a humidified incubator containing 5% CO2 at 37 °C. All experiments were conducted using cells from passages 40 to 70. […] Subsequent measurements were then performed using a cytotoxicity MTT assay and an insulin release assay.
The MTT (Sigma, St. Louis, MO, USA) reduction assay was used as an indicator of cell damage and was conducted following a standard protocol. INS-1E cells (5 × 10^4 cells per well) were seeded into 96-microwell plates. The cells were preincubated for different periods with or without various concentrations of individual compounds for 24 h (5% CO2 at 37 °C). MTT was introduced to achieve a final concentration of 0.5 mg/mL in an RPMI 1640 medium. Following a 4 h incubation, the MTT medium was removed. The addition of DMSO (100 µL) was added and left to stand for 15 min to solubilize the formazan formed. The absorbance was recorded at 570 nm using a microplate reader (Infinite M200, Tecan, Switzerland).

INS-1E beta cells [2] = assay: Insulin release from INS-1E beta cells (RIA); format: cell-based; conditions: for Insulin Secretion Non-Stimulated / Insulin release from non-stimulated cells: 3 mM glucose; for Insulin release from non-stimulated cells / Insulin release from Glu-stimulated cells: 50 µM, except CUR and THCU 10 µM, 24 h; for Insulin release from Glu-stimulated cells / Insulin Secretion Stimulated: 16.7 mM glucose
Protocol: The INS-1E insulinoma pancreatic beta cell line (kindly provided by Prof. Claes Wollheim, University of Geneva) was cultured in RPMI 1640 (11 mM glucose, Sigma, St. Louis, MO, USA). The RPMI 1640 was supplemented with 100 U/mL penicillin, 100 μg/mL streptomycin, 2 mM L-glutamine, 1 mM Na pyruvate, 55 μM 2-mercaptoethanol, 10 mM HEPES, 1% nonessential amino acids, and 10% fetal bovine serum (pH 7.0–7.4). Cells were cultivated in a humidified incubator containing 5% CO2 at 37 °C. All experiments were conducted using cells from passages 40 to 70. The cells were pre-treated with various concentrations of individual compounds (5–200 μM) for 24 h with or without MGX (2.5 mM) and PAL (0.4 mM). Subsequent measurements were then performed using a cytotoxicity MTT assay and an insulin release assay.
Insulin release in response to glucose was measured in INS-1E beta cells ([…]). Briefly, after 24 h preincubation with individual compounds, beta cells were washed with a glucose-free KRBH buffer. Subsequently, cells were incubated at 37 °C for 30 min in a glucose-free KRBH buffer, followed by another 30 min incubation at 37 °C in a KRBH buffer containing either 3 mM glucose (non-stimulating concentration) or 16.7 mM glucose (insulin-stimulating concentration). The supernatants were then collected and analyzed using an RIA kit (Mercodia, Uppsala, Sweden) for insulin release, with rat insulin as the standard.

SERCA2 isoform = system: SERCA2 isoform; design: method as in Kang et al. [43] and Nguyen et al. [44]; conditions: ref Kang et al. [43] and Nguyen et al. [44]; cited from earlier work
[3] = SR vesicles, no stressor, read-out: EC50, SERCA1a activation

Compound: Oc1cc(O)cc(/C=C/c2ccc(O)cc2O)c1 [ORES, Oxyresveratrol]
- Effect on SERCA1a activity in the presence of MGX (SERCA1a; 5–200 μM): further decreased SERCA1a activity
- PAL SERCA1a Activity (SERCA1a): -
- PAL INS-1E Viability (INS-1E beta cells [1]): -
- Insulin Secretion Non-Stimulated (INS-1E beta cells [2]): -

Compound: COc1cc(CCC(=O)CC(=O)CCc2ccc(O)c(OC)c2)ccc1O [THCU, Tetrahydrocurcumin]
- MGX SERCA1a Activity (SERCA1a; in the presence of MGX): -
- PAL SERCA1a Activity (SERCA1a): -
- Effect on INS-1E cell viability (INS-1E beta cells [1]; 20 µM, 24 h): stimulating effect on cell viability
- Effect on INS-1E viability in the presence of MGX (INS-1E beta cells [1]; 20 µM): protective effect
- Concentrations protecting against MGX-induced beta cell viability decrease (INS-1E beta cells [1]): < 20 µM
- Insulin release from non-stimulated cells (INS-1E beta cells [2]): significant increase in insulin release
- Insulin release from Glu-stimulated cells (INS-1E beta cells [2]): significant increase in insulin release

- IC50 (SERCA1a; SR vesicles): 2980 µM
Compound: CC(=O)C=O [MGX, methylglyoxal]
- IC50 (INS-1E beta cells [1]): 2540 µM

- IC50 (SERCA1a; SR vesicles): 650 µM
Compound: CCCCCCCCCCCCCCCC(=O)O [PAL, palmitate]
- IC50 (INS-1E beta cells [1]; INS-1E): 410 µM

Compound: Cc1ccc2cccc(NC(=O)c3ccc(OC(C)C)cc3)c2n1 [CDN1163]
- Concentrations required for efficient SERCA activation (SERCA2 isoform): 1 to 10 µM

- Effect on SERCA1a activity in the presence of PAL (SERCA1a; 5–200 μM): protective effect
- Effect on SERCA1a activity (SERCA1a; 5–200 μM): increase SERCA1a activity
- EC50 (SERCA1a; [3]): 36.9 µM
- Concentration from which the SERCA1a activating effect starts (SERCA1a): ≥ 30 µM
Compound: CCCCC[C@H](O)CC(=O)CCc1ccc(O)c(OC)c1 [GIN, [6]-Gingerol]
- Effect on SERCA1a activity in the presence of PAL (SERCA1a; 50 and 100 μM): protected against the decrease in SERCA1 activity
- Effect on SERCA1a activity in the presence of MGX (SERCA1a; 5–200 μM): potent concentration-dependent protective effect
- Effect on SERCA1a activity in the presence of MGX (SERCA1a; 100–200 μM): protected against the decrease in SERCA1 activity
- Insulin release from non-stimulated cells (INS-1E beta cells [2]): did not induce an increase
- Insulin release from Glu-stimulated cells (INS-1E beta cells [2]): slight increase
- Insulin Secretion Non-Stimulated (INS-1E beta cells [2]): -

- Effect on SERCA1a activity (SERCA1a; 5–200 μM): does not
Compound: CCCCC/C=C/C(=O)CCc1ccc(O)c(OC)c1 [SHO, [6]-Shogaol]
- Effect on SERCA1a activity in the presence of PAL (SERCA1a; 5–200 μM): additional decrease in SERCA1a activity; also recorded: no preventive effect
- Effect on SERCA1a activity in the presence of MGX (SERCA1a; 5–200 μM): further decreased SERCA1a activity; also recorded: no preventive effect
- Insulin Secretion Non-Stimulated (INS-1E beta cells [2]): -
- Insulin Secretion Stimulated (INS-1E beta cells [2]): -

- EC50 (SERCA1a; in the presence of MGX (3 mM), read-out: EC50, protection of SERCA1 activity against MGX): 112 µM
Compound: Oc1ccc(/C=C/c2cc(O)cc(O)c2)cc1 [RES, Resveratrol]
- Effect on SERCA1a activity in the presence of MGX (SERCA1a; 5–200 μM): potent concentration-dependent protective effect
- Effect on INS-1E viability in the presence of PAL (INS-1E beta cells [1]; 0.4 mM PAL, 5–200 μM): did not prevent the decrease
- Effect on INS-1E viability in the presence of MGX (INS-1E beta cells [1]; 5–200 μM, 24 h): no effect; also recorded: did not prevent the decrease
- MGX INS-1E Viability (INS-1E beta cells [1]; in the presence of MGX): -
- PAL INS-1E Viability (INS-1E beta cells [1]): -
- Insulin Secretion Non-Stimulated (INS-1E beta cells [2]): -
- Insulin Secretion Stimulated (INS-1E beta cells [2]): -

- SERCA1a Activity (SERCA1a; control conditions): -
- PAL SERCA1a Activity (SERCA1a): -
Compound: O=c1c(O)c(-c2cc(O)c(O)c(O)c2)oc2cc(O)cc(O)c12 [MYR, Myricetin]
- Effect on INS-1E viability in the presence of PAL (INS-1E beta cells [1]; 0.4 mM PAL, 5–200 μM): highest degree of protection
- INS-1E viability restored, % of the control cell value (INS-1E beta cells [1]; 0.4 mM PAL, 10 and 50 µM): approximately 80%

- Increase in SERCA1a activity (SERCA1a; 50 μM): approximately 150%
- Effect on SERCA1a activity in the presence of PAL (SERCA1a; 5–200 μM): most profound protective effect
- Effect on SERCA1a activity (SERCA1a; 5–200 μM): increase SERCA1a activity
- EC50 (SERCA1a; [3]): 33.2 µM
- Concentration from which the SERCA1a activating effect starts (SERCA1a): ≥ 30 µM
Compound: O=c1oc2c(O)c(O)cc3c(=O)oc4c(O)c(O)cc1c4c23 [EA, Ellagic acid]
- Effect on SERCA1a activity in the presence of PAL (SERCA1a; 50 µM): alleviated PAL-induced injury almost to control values
- Effect on SERCA1a activity in the presence of MGX (SERCA1a; 5–200 μM): potent concentration-dependent protective effect
- Effect on INS-1E viability in the presence of PAL (INS-1E beta cells [1]; 0.4 mM PAL, 5–200 μM): protection
- Insulin release from non-stimulated cells (INS-1E beta cells [2]): significant increase in insulin release
- Insulin release from Glu-stimulated cells (INS-1E beta cells [2]): significant increase in insulin release

- Effect on SERCA1a activity (SERCA1a; 5–200 μM): increase SERCA1a activity
Compound: Oc1cc(O)c2cc(O)c(-c3ccc(O)c(O)c3)[o+]c2c1 [CYA, Cyanidin chloride]

Compound: Curcumin
- Effect on SERCA1a activity in the presence of PAL (SERCA1a; 5–200 μM): additional decrease in SERCA1a activity
- Effect on SERCA1a activity in the presence of MGX (SERCA1a; 10 µM): prevented MGX-mediated decline
- Effect on SERCA1a activity in the presence of MGX (SERCA1a; 20–50 µM): further decreased SERCA1a activity
- Effect on INS-1E viability in the presence of PAL (INS-1E beta cells [1]; 0.4 mM PAL, 5–200 μM): protection
- Effect on INS-1E viability in the presence of MGX (INS-1E beta cells [1]; 5 and 10 µM): protective effect
- Concentrations protecting against MGX-induced beta cell viability decrease (INS-1E beta cells [1]): < 20 µM
- Insulin release from non-stimulated cells (INS-1E beta cells [2]): significant increase in insulin release
- Insulin release from Glu-stimulated cells (INS-1E beta cells [2]): significant increase in insulin release
